# Results as given in patent publication US8513271B2, “Pyrimidine compounds as delta opioid receptor modulators” (Janssen Pharmaceutica, NV, priority 2009, dated 2013).
# pEC50: −log10 of the molar value. Read-outs that look alike come from different tables or passages of the source.
# Molecular target: T1, delta opioid receptor (Mus musculus, UniProt P32300)
# T1 construct: NG108-15 cell membranes were purchased from Applied Cell Sciences (Rockville, Md.); host or cells: NG108-15 cell membranes
# T1 sequence (P32300 whole entry): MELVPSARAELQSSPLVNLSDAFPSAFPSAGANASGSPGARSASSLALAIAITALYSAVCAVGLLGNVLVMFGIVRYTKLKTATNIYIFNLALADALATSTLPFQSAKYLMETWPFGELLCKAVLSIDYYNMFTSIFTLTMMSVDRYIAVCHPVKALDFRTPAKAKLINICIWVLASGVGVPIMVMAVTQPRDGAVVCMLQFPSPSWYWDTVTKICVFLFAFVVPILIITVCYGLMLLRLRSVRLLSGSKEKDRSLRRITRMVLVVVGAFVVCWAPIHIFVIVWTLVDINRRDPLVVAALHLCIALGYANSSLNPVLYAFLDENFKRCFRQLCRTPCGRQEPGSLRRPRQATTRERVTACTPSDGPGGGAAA
# Assay: [35S]GTPγS binding assay in NG108-15 cell membranes (delta opioid functional assay), 200 nM screen
# Assay type: biochemical
# Conditions: NG108-15 cell membranes; for GTPγS δ-RelEfficacy @200 nM: 200 nM test compound, relative to calculated max of SNC80 dose response curve; for GTPγS δ-RelEfficacy @200 nM / pEC50 / EC50: averages if tested more than once; for pEC50: read-out: GTPγS δ-opioid receptor EC50; for GTPγS δ-opioid receptor Rel Efficacy: relative efficacy from dose response; for EC50: GTPγS δ-opioid receptor EC50 (μM)
Structure (SMILES),GTPγS δ-RelEfficacy @200 nM,pEC50,GTPγS δ-opioid receptor Rel Efficacy,EC50 [µM]
COc1ccc(Oc2nc(-c3cncc(C#N)c3)ncc2NCC2CNC2)cc1 [Cpd 215],0.674,6.89,1.002,–
COc1ccc(Oc2nc(-c3cncc(Cl)c3)ncc2NC[C@@H]2C[C@@H](F)CN2)cc1 [Cpd 194],0.665,–,1.034,0.022
O=CNc1ccc(Oc2nc(-c3cncc(F)c3)ncc2NC[C@@H]2CCCN2)cc1 [Cpd 223],0.802,6.82,0.986,–
N#Cc1cncc(-c2ncc(NC[C@@H]3CCCN3)c(Oc3ccc(CF)cc3)n2)c1 [Cpd 206],0.292,–,–,–
COc1ccc(Oc2nc(-c3cc(C)cnc3C)ncc2NC[C@@H]2CCCN2)cc1 [Cpd 263],–,–,0.869,0.027
COCCOc1ccc(Oc2nc(-c3cncc(OC)c3)ncc2NC[C@@H]2CCCN2)cc1 [Cpd 243],0.433,–,–,–
COc1ccc(Oc2nc(-c3cccnc3)ncc2N[C@H]2CCC[C@@H](N)C2)cc1 [Cpd 321],–,–,1.022,0.005
COc1ccc(Oc2nc(-c3cncc(C#N)c3)ncc2NCc2cncn2C)cc1 [Cpd 286],0.1,–,–,–
COc1ccc(Oc2nc(-c3cncc(C)c3)ncc2NCc2cnc[nH]2)cc1 [Cpd 291],0.303,–,–,–
Fc1cncc(-c2ncc(NC[C@@H]3CCCN3)c(Oc3ccc(C(F)(F)F)cc3)n2)c1 [Cpd 221],0.324,–,–,–
COc1ccc(Oc2nc(-c3cccnc3)ncc2N2CCN[C@@H](C)C2)cc1 [Cpd 356],–,7.51,1.030,–
O=C(Nc1cccc(Oc2nc(-c3cccnc3)ncc2NC[C@@H]2CCCN2)c1)OCc1ccccc1 [Cpd 188],0.779,6.66,1.950,–
"COc1ccc(Oc2nc(-c3cncc(SC)c3)ncc2NC2CCCC(N)C2)cc1 (single isomer, unassigned) [Cpd 319]",–,–,0.871,0.112
COc1ccc(Oc2nc(-c3cccnc3)ncc2N[C@@H]2CCC[C@H](N)C2)cc1 [Cpd 322],–,–,0.960,0.196
COc1ccc(Oc2nc(-c3ccccc3)ncc2N2CCNCC2)cc1 [Cpd 324],0.519,6.37,1.045,–
COc1ccc(Oc2nc(-c3cncc(C#N)c3)ncc2NCc2ncc[nH]2)cc1 [Cpd 284],0.600,–,0.609,0.055
COc1ccc(Oc2nc(-c3cncc(C#N)c3)ncc2N2CC(CN)C2)cc1 [Cpd 331],0.764,6.97,0.928,–
COc1ccc(Oc2nc(-c3cncc(C#N)c3)ncc2N2CCNC[C@H]2C)cc1 [Cpd 344],0.808,–,1.089,0.047
CCc1ccc(Oc2nc(-c3cccnc3)ncc2NC[C@@H]2CCCN2)cc1 [Cpd 184],0.497,6.38,1.271,–

Structure (SMILES),GTPγS δ-RelEfficacy @200 nM,pEC50,GTPγS δ-opioid receptor Rel Efficacy,EC50 [µM]
COc1ccc(Oc2nc(-c3cncc(F)c3)ncc2NC[C@@H]2C[C@@H](F)CN2)cc1 [Cpd 193],0.801,–,1.090,0.032
COc1ccc(Oc2nc(-c3cncc(OC)c3)ncc2N[C@@H]2CCCNC2)cc1 [Cpd 246],–,–,1.043,0.078
COc1ccc(Oc2nc(-c3cncc(C#N)c3)ncc2N2CCNC(=O)C2)cc1 [Cpd 335],0.050,–,–,–
COc1ccc(Oc2nc(-c3cncc(SC)c3)ncc2NC2CCCC(N)C2)cc1 (racemic) [Cpd 310],–,–,1.042,0.031
Cc1ccc(Oc2nc(-c3cccnc3)ncc2NC[C@@H]2CCCN2)c(F)c1F [Cpd 192],0.135,–,–,–
COc1ccc(Oc2nc(-c3cccnc3)ncc2NC[C@@H]2CCCN2)cc1C [Cpd 211],0.814,6.97,1.050,–
CCc1ccc(Oc2nc(-c3cncc(Cl)c3)ncc2NC[C@@H]2CCCN2)cc1 [Cpd 180],0.250,–,–,–
c1cncc(-c2ncc(N3CCNCC3)c(Oc3ccc(C4CC4)cc3)n2)c1 [Cpd 320],–,6.72,0.918,–
O=C(c1cccc(Oc2nc(-c3cncc(F)c3)ncc2NC[C@@H]2CCCN2)c1)N1CCCCC1 [Cpd 172],0.246,–,–,–
COc1ccc(Oc2nc(-c3cncc(SC)c3)ncc2NCc2cnc[nH]2)cc1 [Cpd 289],0.402,–,–,–
"COc1cncc(-c2ncc(NC[C@@H]3CCCN3)c(Oc3cccc(OC(C)=O)c3)n2)c1 [Cpd 250, Acetic acid 3-{2-(5-methoxy-pyridin-3-yl)-5-[(pyrrolidin-2-(S)-ylmethyl)-amino]-pyrimidin-4-yloxy}-phenyl ester]",0.912,–,1.022,0.026
"COc1ccc(Oc2nc(-c3cncc(OC)c3)ncc2NC[C@@H]2C[C@@H](O)CN2)cc1 [Cpd 273, 5-(S)-{[4-(4-Methoxy-phenoxy)-2-(5-methoxy-pyridin-3-yl)-pyrimidin-5-ylamino]-methyl}-pyrrolidin-3-(R)-ol]",–,–,1.001,0.026
Cc1ccc(Oc2nc(-c3cncc(Cl)c3)ncc2NC[C@@H]2CCCN2)c(F)c1F [Cpd 190],0.222,–,–,–
CN1CCN(C(=O)c2cccc(Oc3nc(-c4cncc(F)c4)ncc3NC[C@@H]3CCCN3)c2)CC1 [Cpd 174],0.205,–,–,–
COc1ccc(Oc2nc(-c3cncc(C#N)c3)ncc2N2CC3CC(C2)N3)cc1 [Cpd 338],0.723,6.71,0.956,–
O=C(c1ccc(Oc2nc(-c3cncc(F)c3)ncc2NC[C@@H]2CCCN2)cc1)N1CCCC1 [Cpd 176],0.112,–,–,–
COc1ccc(Oc2nc(-c3cccnc3)ncc2NCc2cnc[nH]2)cc1 [Cpd 288],0.428,–,–,–
COc1ccc(Oc2nc(-c3cncc(OC)c3)ncc2NCc2cnc[nH]2)cc1 [Cpd 290],0.398,–,–,–
COc1ccc(Oc2nc(-c3cncc(SC)c3)ncc2N2CC[C@@H](N)C2)cc1 [Cpd 348],–,7.00,0.689,–

Structure (SMILES),GTPγS δ-RelEfficacy @200 nM,pEC50,GTPγS δ-opioid receptor Rel Efficacy,EC50 [µM]
COc1ccc(Oc2nc(-c3cncc(C#N)c3)ncc2NC2CC(N)C2)cc1 (stereo not drawn) [Cpd 303],0.622,6.94,1.047,–
COc1ccc(Oc2nc(-c3cnc(Cl)c(C)c3)ncc2NC[C@@H]2CCCN2)cc1 [Cpd 266],–,–,1.041,0.018
COc1ccc(Oc2nc(-c3cccnc3)ncc2N[C@@H]2CCCNC2)cc1 [Cpd 261],–,–,0.979,0.241
CSc1cncc(-c2ncc(NC[C@@H]3CCCN3)c(Oc3cccc(OC(C)=O)c3)n2)c1 [Cpd 248],0.754,–,1.084,0.047
COc1ccc(Oc2nc(-c3cnc(F)c(C)c3)ncc2NC[C@@H]2CCCN2)cc1 [Cpd 262],–,7.43,0.957,–
COc1ccc(Oc2nc(-c3cccnc3)ncc2NC2CNC2)cc1 [Cpd 226],0.320,–,–,–
COc1ccc(Oc2nc(-c3cncc(F)c3)ncc2NC[C@@H]2CCCN2)cc1C [Cpd 205],0.609,–,1.178,0.044
COc1ccc(Oc2nc(-c3cnc(-c4cnc(Cl)c(C)c4)c(C)c3)ncc2NC[C@@H]2CCCN2)cc1 [Cpd 264],–,6.92,1.036,–
COCCOc1ccc(Oc2nc(-c3cncc(C)c3)ncc2NC[C@@H]2CCCN2)cc1 [Cpd 242],0.413,–,–,–
COc1ccc(Oc2nc(-c3cccnc3)ncc2N[C@@H]2CCNC2)cc1 [Cpd 224],0.460,6.67,1.104,–
"COc1ccc(Oc2nc(-c3cncnc3)ncc2N(C[C@@H]2CCCN2)C(C)=O)cc1 [Cpd 181, N-[4-(4-Methoxy-phenoxy)-[2,5′]bipyrimidinyl-5-yl]-N-pyrrolidin-2-(S)-ylmethyl-acetamide]",0.139,–,–,–
COc1ccc(Oc2nc(-c3cccnc3)ncc2N2C[C@@H](C)N[C@@H](C)C2)cc1 [Cpd 359],–,–,0.709,0.034
"COc1ccc(Oc2nc(-c3cncc(OC)c3)ncc2N[C@H]2CCC[C@@H](N)C2)cc1 [Cpd 312, N-[4-(4-Methoxy-phenoxy)-2-(5-methoxy-pyridin-3-yl)-pyrimidin-5-yl]-cyclohexane-(1R,3S)-1,3-diamine]",–,–,1.007,0.00435
COc1ccc(Oc2nc(-c3cccnc3)ncc2NC[C@H]2CCCCN2)cc1 [Cpd 267],–,6.92,0.920,–
Cc1cc(Oc2nc(-c3cncc(C#N)c3)ncc2NC[C@@H]2CCCN2)ccc1F [Cpd 218],0.642,6.45,0.960,–
"COc1ccc(Oc2nc(-c3cccnc3)ncc2NC2CCCCC2N)cc1 (single isomer, unassigned) [Cpd 308]",0.140,–,–,–
Cc1cccc(Oc2nc(-c3cccnc3)ncc2NC[C@@H]2CCCN2)c1 [Cpd 203],0.096,–,–,–
Cc1cccc(Oc2nc(-c3cncc(C#N)c3)ncc2NC[C@@H]2CCCN2)c1 [Cpd 200],0.289,–,–,–
COc1ccc(Oc2nc(-c3cncc(SC)c3)ncc2N[C@@H]2CCCNC2)cc1 [Cpd 254],–,–,0.928,0.151
